Laboratory results published in patent US8063220B2, “Sulfonyl-quinoline derivatives” (Richter Gedeon Nyrt., priority 2007, dated 2011).

Key:
rat mGluR1 = target: T1, rat mGluR1 (Rattus norvegicus, UniProt P23385); experiment: MGluR1 receptor binding test ([3H]R214127 displacement, rat cerebellar membrane preparation); conditions: rat mGluR1, [3H]R214127 3 nM; read-out: mGlu1 Ki
T1 construct: rat cerebellar membrane preparation was used; from tissue; host or cells: rat cerebellum (membrane preparation)
Procedure: MGluR1 receptor binding tests were performed according to modified method of Lavreysen et al. (Mol. Pharm., 2003, 63, 1082). Based on the high homology between the human and rat mGluR1 receptors, rat cerebellar membrane preparation was used to determine the binding characteristics of reference compounds and novel compounds to the rat mGluR1. [3H]R214127 (3 nM) was used as radioligand and the nonspecific binding was determined in the presence of 1 μM of R214127.
IC-50 values were determined from displacement curves by nonlinear regression analysis and were converted to Ki values using the equation method of Cheng and Prusoff (Biochem. Pharmacol., 1973, 22, 3099).

rat mGluR5 = target: T2, rat mGluR5 (Rattus norvegicus, UniProt P31424); experiment: MGluR5 receptor binding test ([3H]-M-MPEP displacement, rat cerebro-cortical membrane preparation); conditions: rat mGluR5, [3H]-M-MPEP 2 nM; read-out: mGlu5 Ki
T2 construct: Rat cerebro-cortical membrane preparation was used; from tissue; host or cells: rat cerebral cortex (membrane preparation)
Procedure: Rat cerebro-cortical membrane preparation was used to determine the binding characteristics of reference compounds and novel compounds to the rat mGluR5. The A18 cell line expressing hmGluR5a (purchased from Euroscreen) was used to determine binding characteristics of the chemical compounds to the human mGluR5a receptor. [3H]-M-MPEP (2 nM) was used as radioligand. The nonspecific binding was determined in the presence of 10 μM M-MPEP.

T2 sequence (P31424 21-1203): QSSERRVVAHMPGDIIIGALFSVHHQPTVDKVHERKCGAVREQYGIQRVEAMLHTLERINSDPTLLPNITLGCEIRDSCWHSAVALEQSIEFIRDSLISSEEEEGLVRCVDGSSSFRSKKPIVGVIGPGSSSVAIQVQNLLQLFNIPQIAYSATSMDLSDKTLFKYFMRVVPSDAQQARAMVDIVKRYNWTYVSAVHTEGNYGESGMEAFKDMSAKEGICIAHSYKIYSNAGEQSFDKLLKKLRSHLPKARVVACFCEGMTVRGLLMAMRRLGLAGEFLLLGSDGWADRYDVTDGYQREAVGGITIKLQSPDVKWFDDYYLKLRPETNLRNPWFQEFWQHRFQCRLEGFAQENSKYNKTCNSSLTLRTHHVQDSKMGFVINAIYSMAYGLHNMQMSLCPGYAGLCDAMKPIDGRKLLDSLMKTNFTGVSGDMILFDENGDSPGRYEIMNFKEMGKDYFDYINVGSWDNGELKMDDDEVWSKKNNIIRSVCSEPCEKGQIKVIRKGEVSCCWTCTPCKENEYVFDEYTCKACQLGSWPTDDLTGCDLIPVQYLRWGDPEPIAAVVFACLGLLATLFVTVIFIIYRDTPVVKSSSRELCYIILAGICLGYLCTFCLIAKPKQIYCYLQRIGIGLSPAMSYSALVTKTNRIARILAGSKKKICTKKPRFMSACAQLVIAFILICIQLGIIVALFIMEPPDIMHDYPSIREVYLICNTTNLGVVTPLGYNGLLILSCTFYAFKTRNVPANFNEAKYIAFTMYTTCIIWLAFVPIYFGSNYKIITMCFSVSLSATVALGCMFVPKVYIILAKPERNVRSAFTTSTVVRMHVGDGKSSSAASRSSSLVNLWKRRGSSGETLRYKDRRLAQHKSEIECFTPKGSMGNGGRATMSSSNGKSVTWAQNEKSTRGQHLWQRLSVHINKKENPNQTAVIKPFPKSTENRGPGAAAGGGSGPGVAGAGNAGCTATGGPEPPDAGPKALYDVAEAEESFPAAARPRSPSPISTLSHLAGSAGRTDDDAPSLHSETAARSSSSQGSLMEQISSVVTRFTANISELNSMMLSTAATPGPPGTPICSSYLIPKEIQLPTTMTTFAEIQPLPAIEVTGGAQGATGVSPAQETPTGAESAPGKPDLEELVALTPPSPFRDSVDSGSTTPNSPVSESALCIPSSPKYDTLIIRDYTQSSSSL
T1 sequence (P23385 19-1199): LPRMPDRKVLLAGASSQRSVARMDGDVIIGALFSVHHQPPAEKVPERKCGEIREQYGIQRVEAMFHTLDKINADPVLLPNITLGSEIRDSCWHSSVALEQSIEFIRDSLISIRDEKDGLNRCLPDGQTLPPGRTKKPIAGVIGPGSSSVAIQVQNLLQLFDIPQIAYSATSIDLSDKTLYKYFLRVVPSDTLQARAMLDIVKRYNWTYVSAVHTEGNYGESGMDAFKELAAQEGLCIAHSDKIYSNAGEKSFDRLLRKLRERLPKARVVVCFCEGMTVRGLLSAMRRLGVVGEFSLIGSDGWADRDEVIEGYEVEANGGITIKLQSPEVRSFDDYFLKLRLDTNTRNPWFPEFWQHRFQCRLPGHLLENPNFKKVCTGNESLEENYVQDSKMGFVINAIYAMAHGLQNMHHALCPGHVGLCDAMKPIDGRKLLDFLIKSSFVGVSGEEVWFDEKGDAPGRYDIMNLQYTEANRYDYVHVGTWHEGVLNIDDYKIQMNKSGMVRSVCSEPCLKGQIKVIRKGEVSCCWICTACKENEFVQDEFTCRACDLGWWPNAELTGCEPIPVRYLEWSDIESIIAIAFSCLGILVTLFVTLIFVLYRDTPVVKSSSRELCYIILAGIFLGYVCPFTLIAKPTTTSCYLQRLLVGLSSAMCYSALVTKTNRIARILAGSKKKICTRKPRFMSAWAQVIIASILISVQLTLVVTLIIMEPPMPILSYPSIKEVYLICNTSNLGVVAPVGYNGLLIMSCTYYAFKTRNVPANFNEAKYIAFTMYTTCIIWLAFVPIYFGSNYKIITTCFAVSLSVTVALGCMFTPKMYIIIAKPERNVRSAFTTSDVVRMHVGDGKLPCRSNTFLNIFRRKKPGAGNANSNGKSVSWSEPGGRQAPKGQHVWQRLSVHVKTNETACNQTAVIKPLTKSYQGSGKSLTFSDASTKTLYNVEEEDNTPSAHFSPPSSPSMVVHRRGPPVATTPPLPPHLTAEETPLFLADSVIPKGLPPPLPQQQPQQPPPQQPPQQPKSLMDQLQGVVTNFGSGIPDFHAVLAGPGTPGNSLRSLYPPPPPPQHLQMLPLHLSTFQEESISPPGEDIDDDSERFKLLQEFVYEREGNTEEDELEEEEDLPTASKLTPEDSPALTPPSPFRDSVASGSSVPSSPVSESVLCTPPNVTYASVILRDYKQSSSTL

| SMILES | Ki (rat mGluR1) [nM] | Ki (rat mGluR5) [nM] |
| --- | --- | --- |
| O=S(=O)(c1cccc(F)c1)c1cnc2c(F)cccc2c1-c1ccc(Cl)cc1 [Compound 59] | 200 to 500 | < 200 |
| O=S(=O)(c1cccc(F)c1)c1cnc2c(F)cccc2c1-c1cccc(F)c1 [Compound 60] | 200 to 500 | < 200 |
| COc1ccc(-c2c(S(=O)(=O)c3cccc(F)c3)cnc3c(F)cccc23)cc1 [Compound 61] | > 500 | < 200 |
| COc1cccc(-c2c(S(=O)(=O)c3cccc(F)c3)cnc3c(F)cccc23)c1 [Compound 62] | > 500 | < 200 |
| O=S(=O)(c1cccc(F)c1)c1cnc2c(F)cccc2c1-c1ccc(F)cc1 [Compound 63] | 200 to 500 | < 200 |
| O=S(=O)(c1cc(F)cc(F)c1)c1cnc2ccc(F)cc2c1-c1cccc(F)c1 [Compound 65] | 200 to 500 | 200 to 500 |
| O=S(=O)(c1cc(F)cc(F)c1)c1cnc2ccc(F)cc2c1-c1ccc(F)cc1 [Compound 66] | > 500 | 200 to 500 |
| COc1ccc(-c2c(S(=O)(=O)c3ccc(OC)c(OC)c3)cnc3ccc(F)cc23)cc1 [Compound 71] | > 500 | > 500 |
| COc1cccc(S(=O)(=O)c2cnc3ccc(F)cc3c2-c2ccc(F)cc2)c1 [Compound 73] | > 500 | < 200 |
| COc1ccc(-c2c(S(=O)(=O)c3ccc(OC)c(Cl)c3)cnc3ccc(F)cc23)cc1 [Compound 74] | > 500 | < 200 |
| COc1cccc(-c2c(S(=O)(=O)c3ccc(OC)c(Cl)c3)cnc3ccc(F)cc23)c1 [Compound 75] | > 500 | < 200 |
| COc1ccc(-c2c(S(=O)(=O)c3ccc(C)c(C)c3)cnc3cc(F)ccc23)cc1 [Compound 77] | > 500 | < 200 |
| COc1ccc(S(=O)(=O)c2cnc3ccc(F)cc3c2-c2ccc(Cl)cc2)cc1Cl [Compound 78] | > 500 | < 200 |
| COc1ccc(S(=O)(=O)c2cnc3ccc(F)cc3c2-c2cccc(F)c2)cc1Cl [Compound 79] | > 500 | < 200 |
| COc1ccc(-c2c(S(=O)(=O)c3cc(Cl)cc(Cl)c3)cnc3cc(F)ccc23)cc1 [Compound 81] | > 500 | < 200 |
| Cc1ccc(S(=O)(=O)c2cnc3cc(F)ccc3c2-c2ccc(F)cc2)cc1F [Compound 86] | > 500 | < 200 |

| SMILES | Ki (rat mGluR1) [nM] | Ki (rat mGluR5) [nM] |
| --- | --- | --- |
| COc1ccc(-c2c(S(=O)(=O)c3cc(F)cc(F)c3)cnc3cc(F)ccc23)cc1 [Compound 89] | > 500 | < 200 |
| COc1cccc(-c2c(S(=O)(=O)c3cc(F)cc(F)c3)cnc3cc(F)ccc23)c1 [Compound 90] | > 500 | < 200 |
| COc1ccc(-c2c(S(=O)(=O)c3ccc(F)c(F)c3)cnc3cc(F)ccc23)cc1 [Compound 99] | > 500 | < 200 |
| O=S(=O)(c1ccc(F)c(F)c1)c1cnc2cc(F)ccc2c1-c1ccc(F)cc1 [Compound 101, 3-(3,4-difluoro-benzenesulfonyl)-7-fluoro-4-(4-fluoro-phenyl)-quinoline] | 200 to 500 | < 200 |
| O=S(=O)(c1cc(Cl)cc(Cl)c1)c1cnc2c(F)cccc2c1-c1cccc(F)c1 [Compound 106] | > 500 | < 200 |
| COc1ccc(-c2c(S(=O)(=O)c3cc(Cl)cc(Cl)c3)cnc3c(F)cccc23)cc1 [Compound 107] | > 500 | < 200 |
| COc1cccc(-c2c(S(=O)(=O)c3cc(Cl)cc(Cl)c3)cnc3c(F)cccc23)c1 [Compound 108] | > 500 | < 200 |
| Cc1ccc(S(=O)(=O)c2cnc3c(F)cccc3c2-c2ccc(Cl)cc2)cc1F [Compound 110] | > 500 | < 200 |
| Cc1ccc(S(=O)(=O)c2cnc3c(F)cccc3c2-c2cccc(F)c2)cc1F [Compound 111] | > 500 | < 200 |
| COc1ccc(-c2c(S(=O)(=O)c3ccc(C)c(F)c3)cnc3c(F)cccc23)cc1 [Compound 112] | > 500 | < 200 |
| COc1cccc(-c2c(S(=O)(=O)c3ccc(C)c(F)c3)cnc3c(F)cccc23)c1 [Compound 113] | > 500 | < 200 |
| Cc1ccc(S(=O)(=O)c2cnc3c(F)cccc3c2-c2ccc(F)cc2)cc1F [Compound 114] | > 500 | < 200 |
| O=S(=O)(c1cc(F)cc(F)c1)c1cnc2c(F)cccc2c1-c1ccc(Cl)cc1 [Compound 116] | 200 to 500 | < 200 |
| COc1ccc(-c2c(S(=O)(=O)c3cc(F)cc(F)c3)cnc3c(F)cccc23)cc1 [Compound 117] | > 500 | < 200 |
| COc1cccc(-c2c(S(=O)(=O)c3cc(F)cc(F)c3)cnc3c(F)cccc23)c1 [Compound 118] | > 500 | < 200 |
| O=S(=O)(c1cc(F)cc(F)c1)c1cnc2c(F)cccc2c1-c1ccc(F)cc1 [Compound 119] | < 200 | < 200 |

Further lines, results first:

| Ki (rat mGluR1) [nM] | Ki (rat mGluR5) [nM] | SMILES |
| --- | --- | --- |
| > 500 | > 500 | O=S(=O)(c1cc(F)cc(F)c1)c1cnc2ccc(F)cc2c1-c1cccc(Cl)c1 [Compound 64] |
| 200 to 500 | < 200 | N#Cc1cccc(S(=O)(=O)c2cnc3ccc(F)cc3c2-c2cccc(F)c2)c1 [Compound 67] |
| > 500 | < 200 | COc1cccc(-c2c(S(=O)(=O)c3cccc(C#N)c3)cnc3ccc(F)cc23)c1 [Compound 68, 3-(3-cyano-benzenesulfonyl)-6-fluoro-4-(3-methoxy-phenyl)-quinoline] |
| 200 to 500 | < 200 | N#Cc1cccc(S(=O)(=O)c2cnc3ccc(F)cc3c2-c2ccc(F)cc2)c1 [Compound 69] |
| > 500 | > 500 | COc1ccc(S(=O)(=O)c2cnc3ccc(F)cc3c2-c2cccc(Cl)c2)cc1OC [Compound 70] |
| > 500 | < 200 | COc1cccc(S(=O)(=O)c2cnc3ccc(F)cc3c2-c2cccc(Cl)c2)c1 [Compound 72] |
| > 500 | < 200 | O=S(=O)(c1ccc(F)cc1)c1cnc2cc(F)ccc2c1-c1ccc(Cl)cc1 [Compound 76] |
| 200 to 500 | < 200 | O=S(=O)(c1cc(Cl)cc(Cl)c1)c1cnc2cc(F)ccc2c1-c1cccc(F)c1 [Compound 80] |
| > 500 | < 200 | COc1cccc(-c2c(S(=O)(=O)c3cc(Cl)cc(Cl)c3)cnc3cc(F)ccc23)c1 [Compound 82] |
| > 500 | < 200 | Cc1ccc(S(=O)(=O)c2cnc3cc(F)ccc3c2-c2cccc(Cl)c2)cc1F [Compound 84] |
| > 500 | < 200 | Cc1ccc(S(=O)(=O)c2cnc3cc(F)ccc3c2-c2cccc(F)c2)cc1F [Compound 85] |
| > 500 | 200 to 500 | O=S(=O)(c1cc(F)cc(F)c1)c1cnc2cc(F)ccc2c1-c1cccc(Cl)c1 [Compound 87] |
| 200 to 500 | < 200 | O=S(=O)(c1cc(F)cc(F)c1)c1cnc2cc(F)ccc2c1-c1cccc(F)c1 [Compound 88] |
| < 200 | < 200 | N#Cc1cccc(S(=O)(=O)c2cnc3cc(F)ccc3c2-c2cccc(Cl)c2)c1 [Compound 91] |
| 200 to 500 | < 200 | COc1ccc(-c2c(S(=O)(=O)c3cccc(C#N)c3)cnc3cc(F)ccc23)cc1 [Compound 92] |
| > 500 | < 200 | COc1cccc(-c2c(S(=O)(=O)c3cccc(C#N)c3)cnc3cc(F)ccc23)c1 [Compound 93] |
| > 500 | < 200 | Cc1ccc(S(=O)(=O)c2cnc3cc(F)ccc3c2-c2cccc(F)c2)cc1Cl [Compound 94] |
| > 500 | 200 to 500 | COc1cccc(S(=O)(=O)c2cnc3cc(F)ccc3c2-c2cccc(F)c2)c1 [Compound 95] |
| > 500 | 200 to 500 | COc1cccc(-c2c(S(=O)(=O)c3ccc(OC)c(Cl)c3)cnc3cc(F)ccc23)c1 [Compound 96] |
| 200 to 500 | 200 to 500 | O=S(=O)(c1ccc(F)c(F)c1)c1cnc2cc(F)ccc2c1-c1cccc(Cl)c1 [Compound 97] |
| 200 to 500 | < 200 | O=S(=O)(c1ccc(F)c(F)c1)c1cnc2cc(F)ccc2c1-c1cccc(F)c1 [Compound 98] |
| > 500 | < 200 | COc1cccc(-c2c(S(=O)(=O)c3ccc(F)c(F)c3)cnc3cc(F)ccc23)c1 [Compound 100] |
| 200 to 500 | < 200 | O=S(=O)(c1ccc(F)c(Cl)c1)c1cnc2cc(F)ccc2c1-c1ccc(Cl)cc1 [Compound 102] |
| < 200 | < 200 | O=S(=O)(c1ccc(F)c(Cl)c1)c1cnc2cc(F)ccc2c1-c1cccc(F)c1 [Compound 103] |
| 200 to 500 | < 200 | COc1ccc(-c2c(S(=O)(=O)c3ccc(F)c(Cl)c3)cnc3cc(F)ccc23)cc1 [Compound 104] |
| < 200 | < 200 | O=S(=O)(c1ccc(F)c(Cl)c1)c1cnc2cc(F)ccc2c1-c1ccc(F)cc1 [Compound 105] |
| > 500 | < 200 | Cc1ccc(S(=O)(=O)c2cnc3c(F)cccc3c2-c2cccc(Cl)c2)cc1F [Compound 109] |
| 200 to 500 | < 200 | O=S(=O)(c1cc(F)cc(F)c1)c1cnc2c(F)cccc2c1-c1cccc(Cl)c1 [Compound 115] |
